Assay results published in patent US9422293B2 (priority 2006, dated 2016).
Where a name gives a salt, the structure may show the parent alone.

Each molecule was assayed against rat TRPV1 (Rattus norvegicus (Rat), UniProt O35433). Conditions: read-out: Rat IC50.
Sequence of rat TRPV1 (O35433 whole entry): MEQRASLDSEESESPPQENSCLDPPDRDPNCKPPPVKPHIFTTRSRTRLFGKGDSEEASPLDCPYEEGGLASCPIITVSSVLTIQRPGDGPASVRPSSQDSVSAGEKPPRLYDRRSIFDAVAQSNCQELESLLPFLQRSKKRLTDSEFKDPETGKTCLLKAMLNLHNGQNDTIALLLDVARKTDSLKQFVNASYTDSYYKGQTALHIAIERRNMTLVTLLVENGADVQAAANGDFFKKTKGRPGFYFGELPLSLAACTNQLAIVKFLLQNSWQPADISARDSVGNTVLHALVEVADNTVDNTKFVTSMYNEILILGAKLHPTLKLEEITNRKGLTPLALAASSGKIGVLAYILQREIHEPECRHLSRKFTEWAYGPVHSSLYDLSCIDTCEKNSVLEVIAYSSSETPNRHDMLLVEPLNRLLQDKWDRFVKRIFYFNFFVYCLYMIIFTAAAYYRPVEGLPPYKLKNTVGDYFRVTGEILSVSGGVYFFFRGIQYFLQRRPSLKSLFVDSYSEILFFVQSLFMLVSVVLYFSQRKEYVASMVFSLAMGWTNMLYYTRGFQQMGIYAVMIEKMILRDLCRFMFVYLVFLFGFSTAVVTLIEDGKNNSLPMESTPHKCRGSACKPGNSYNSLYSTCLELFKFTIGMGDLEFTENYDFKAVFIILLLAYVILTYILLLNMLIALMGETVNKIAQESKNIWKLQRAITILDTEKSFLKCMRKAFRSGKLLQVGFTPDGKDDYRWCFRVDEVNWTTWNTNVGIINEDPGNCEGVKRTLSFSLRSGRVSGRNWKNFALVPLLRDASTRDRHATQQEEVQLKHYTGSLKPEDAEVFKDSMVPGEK
For FC(F)(F)c1ccc(Nc2nc(N3CCCCC3)nc3c2CCN(c2ncccc2C(F)(F)F)CC3)nc1 [Example 250, 2-Piperidin-1-yl-7-[3-(trifluoromethyl)pyridin-2-yl]-N-[5-(trifluoromethyl)pyridin-2-yl]-6,7,8,9-tetrahydro-5H-pyrimido[4,5-d]azepin-4-amine], the IC50 was 90 nM.
Molecule COC(=O)C(C)(C)c1ccc(Nc2nc(N3CCOCC3)nc3c2CCN(c2ncccc2C(F)(F)F)CC3)cc1 [Example 376, 2-Methyl-2-{4-[2-morpholin-4-yl-7-(3-trifluoromethyl-pyridin-2-yl)-6,7,8,9-tetrahydro-5H-pyrimido[4,5-d]azepin-4-ylamino]-phenyl}-propionic acid methyl ester] has an IC50 of 110 nM.
For Cc1cc(C(F)(F)F)ccc1Nc1nc(OC2CCOC2)nc2c1CCN(c1ncccc1C(F)(F)F)CC2 (centres unmarked) [Example 313, N-[2-Methyl-4-(trifluoromethyl)phenyl]-2-(tetrahydrofuran-3-yloxy)-7-[3-(trifluoromethyl)pyridin-2-yl]-6,7,8,9-tetrahydro-5H-pyrimido[4,5-d]azepin-4-amine], the IC50 was 560 nM.
O=S(=O)(c1ccc(Nc2nc(OC3CCOC3)nc3c2CCN(c2ncccc2C(F)(F)F)CC3)cc1)C(F)(F)F (centres unmarked) [Example 331, 2-(Tetrahydrofuran-3-yloxy)-7-[3-(trifluoromethyl)pyridin-2-yl]-N-{4-[(trifluoromethyl)sulfonyl]phenyl}-6,7,8,9-tetrahydro-5H-pyrimido[4,5-d]azepin-4-amine] gave an IC50 of 500 nM.
COC(=O)C(C)(C)c1ccc(Nc2nc(C(C)C)nc3c2CCN(c2ncccc2C(F)(F)F)CC3)cc1 [Example 174, Methyl 2-methyl-2-[4-({2-(1-methylethyl)-7-[3-(trifluoromethyl)pyridin-2-yl]-6,7,8,9-tetrahydro-5H-pyrimido[4,5-d]azepin-4-yl}amino)phenyl]propanoate] was tested, and the IC50 was 2010 nM.
With COCc1nc2c(c(Nc3ccc(C(C)(C)C#N)cc3)n1)CCN(c1ncccc1C(F)(F)F)CC2 [Example 347, 2-Methyl-2-[4-({2-[(methyloxy)methyl]-7-[3-(trifluoromethyl)pyridin-2-yl]-6,7,8,9-tetrahydro-5H-pyrimido[4,5-d]azepin-4-yl}amino)phenyl]propanenitrile trifluoroacetic acid salt] the IC50 was 1320 nM.
FC(F)(F)c1ccc(Nc2nc(Nc3ccccc3)nc3c2CCN(c2ncccc2C(F)(F)F)CC3)cc1 [Example 54, N^2-Phenyl-N^4-(4-trifluoromethyl-phenyl)-7-(3-trifluoromethyl-pyridin-2-yl)-6,7,8,9-tetrahydro-5H-pyrimido[4,5-d]azepine-2,4-diamine] gave an IC50 of 230 nM.
Work on FC(F)(F)c1ccc(Nc2nc(N3CCCCCC3)nc3c2CCN(c2ncccc2C(F)(F)F)CC3)nc1 [Example 194, 2-Azepan-1-yl-7-[3-(trifluoromethyl)pyridin-2-yl]-N-[5-(trifluoromethyl)pyridin-2-yl]-6,7,8,9-tetrahydro-5H-pyrimido[4,5-d]azepin-4-amine] yielded an IC50 of 70 nM.
With CC(C)c1nc2c(c(Nc3ccc(C(F)(F)F)cc3)n1)CCN(c1ncccc1N)CC2 [Example 86, [7-(3-Amino-pyridin-2-yl)-2-isopropyl-6,7,8,9-tetrahydro-5H-pyrimido[4,5-d]azepin-4-yl]-(4-trifluoromethyl-phenyl)-amine] the IC50 was 850 nM.
Work on FC(F)(F)c1cccnc1N1CCc2nc(C3CC3)nc(Nc3ccc(Cl)cc3)c2CC1 [Example 4, (4-Chloro-phenyl)-[2-cyclopropyl-7-(3-trifluoromethyl-pyridin-2-yl)-6,7,8,9-tetrahydro-5H-pyrimido[4,5-d]azepin-4-yl]-amine] yielded an IC50 of 500 nM.
In the case of CC(C)(C)c1ccc(Nc2nc(-c3ccccc3)nc3c2CCN(c2ncccc2C(F)(F)F)CC3)cc1 [Example 6, (4-tert-Butyl-phenyl)-[2-phenyl-7-(3-trifluoromethyl-pyridin-2-yl)-6,7,8,9-tetrahydro-5H-pyrimido[4,5-d]azepin-4-yl]-amine], the IC50 is reported as 490 nM.
